Source: patent US20240409536A1, “COMPOUNDS AND METHODS FOR MODULATING SPLICING” (REMIX THERAPEUTICS INC., priority 2021, published 2024)

Experiments:
K562 cells = assay: Cell Titer Glo 2.0 cell viability assay in K562 cells; details: 72 hours
HTT mRNA [1] = assay: Splicing RT-qPCR assay, HTT canonical (CJ) and alternative (AJ) junction mRNA; assay type: cell-based; details: Homo sapiens, A673 or K562 cells, 24 hours; for IC50: decrease in canonical junction mRNA; for AC50: increase in alternative junction mRNA
Summary of the method: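 RT-qPCR read-out: CJ and AJ junction isoforms quantified from cell lysates, normalized to housekeeping GAPDH/GUSB (K562) or PPIA (A673). Cells had 24 h compound exposure, 11-point 3-fold series from 10 uM final, ≤0.25% DMSO.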

Target C mRNA = assay: Gene panel canonical junction qPCR assay, Target C CJ mRNA decrease; assay type: cell-based; details: Homo sapiens, canonical junction qPCR, read-out: Target C IC50 (decrease in CJ mRNA levels)
Summary of the method: (§1)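 A673 or K562 cells treated with compound; canonical exon-exon junction mRNA quantified by cDNA synthesis and RT-qPCR with junction-spanning primer/probe, normalized to GAPDH, GUSB or PPIA and DMSO (2^(−ΔΔCt)). Percent response from set ΔCt assay windows fitted to 4-parameter logistic; IC50 for CJ decrease.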

HTT mRNA [2] = assay: Gene panel canonical junction qPCR assay, HTT CJ mRNA decrease; assay type: cell-based, human; details: Homo sapiens, canonical junction qPCR, read-out: HTT IC50 (decrease in CJ mRNA levels)
Summary of the method: as §1

Row | Structure (SMILES) | Viability (K562 cells) | IC50 (HTT mRNA [1]) | AC50 (HTT mRNA [1]) | IC50 (Target C mRNA) | IC50 (HTT mRNA [2])
1 | C[C@@H]1CN(c2ccc(C(=O)Nc3cc(F)c4nc(Cl)cn4c3)c3nccnc23)C[C@H](C)N1 [Compound 306] | B (B represents 100-1000 nM) | > 10000 nM | > 10000 nM | > 10000 nM | > 10000 nM
2 | Cc1cn2cc(NC(=O)c3ccc(N4C[C@@H](C)N[C@@H](C)C4)c4ncc(OC5CC5)nc34)cc(F)c2n1 [Compound 351] | B (B represents 100-1000 nM) | 1000 to 10000 nM | > 10000 nM | 1000 to 10000 nM | 1000 to 10000 nM
3 | Cc1cn2cc(NC(=O)c3ccc(N4C[C@@H](C)N[C@@H](C)C4)c4ncc(N(C)C)nc34)cc(F)c2n1 [Compound 283] | B (B represents 100-1000 nM) | 100 to 1000 nM | 100 to 1000 nM | 100 to 1000 nM | 100 to 1000 nM
4 | Cc1nc2c(F)cc(NC(=O)c3ccc(N4CCNCC4)c4ccnnc34)cc2s1 [Compound 118] | A (A represents <100 nM) | 100 to 1000 nM | 100 to 1000 nM | 100 to 1000 nM | 100 to 1000 nM
5 | Cc1cn2cc(NC(=O)c3ccc(N4CCN5CCOC[C@@H]5C4)c4nccnc34)cc(F)c2n1 [Compound 255, (S)—N-(8-fluoro-2-methylimidazo[1,2-a]pyridin-6-yl)-8-(hexahydropyrazino[2,1-c][1,4]oxazin-8(1H)-yl)quinoxaline-5-carboxamide] | B (B represents 100-1000 nM) | 100 to 1000 nM | 100 to 1000 nM | 100 to 1000 nM | 100 to 1000 nM
6 | Cc1cn2cc(NC(=O)c3ccc(N4C5CNCC54)c4nccnc34)cc(F)c2n1 (centres unmarked) [Compound 262, 8-{3,6-diazabicyclo[3.1.0]hexan-6-yl}-N-{8-fluoro-2-methylimidazo[1,2-a]pyridin-6-yl}quinoxaline-5-carboxamide] | – | 100 to 1000 nM | 100 to 1000 nM | 100 to 1000 nM | 100 to 1000 nM
7 | C[C@@H]1CN(c2ccc(C(=O)Nc3cc(F)c4nn(C)cc4c3)c3nccnc23)C[C@@H](C)N1 [Compound 335] | – | 1000 to 10000 nM | > 10000 nM | > 10000 nM | 1000 to 10000 nM
8 | Cc1cn2cc(NC(=O)c3ccc(N4C[C@@H](C)N[C@H](C)C4)c4nccnc34)cc(F)c2n1 [Compound 312] | – | 1000 to 10000 nM | 1000 to 10000 nM | > 10000 nM | 1000 to 10000 nM
9 | Cc1cn2cc(NC(=O)c3ccc(N4C[C@@H](C)N[C@@H](C)C4)c4nccnc34)nc(Cl)c2n1 [Compound 279] | – | > 10000 nM | > 10000 nM | > 10000 nM | > 10000 nM
10 | Cc1cn2cc(NC(=O)c3ccc(N4C[C@H](C)N[C@@H](C)C4)c4nccnc34)cc(F)c2n1 [Compound 313] | – | 1000 to 10000 nM | 1000 to 10000 nM | 1000 to 10000 nM | 1000 to 10000 nM
11 | COc1ncc2c(N3C[C@@H](C)N[C@@H](C)C3)ccc(C(=O)Nc3cc(F)c4nc(C)cn4c3)c2n1 [Compound 300] | – | 100 to 1000 nM | 100 to 1000 nM | 100 to 1000 nM | 100 to 1000 nM
12 | Cc1cn2cc(NC(=O)c3ccc(C4=CCNCC4)c4nccnc34)cc(F)c2n1 [Compound 240, N-{8-fluoro-2-methylimidazo[1,2-a]pyridin-6-yl}-8-(1,2,3,6-tetrahydropyridin-4-yl)quinoxaline-5-carboxamide] | – | < 100 nM | 100 to 1000 nM | 100 to 1000 nM | < 100 nM
13 | Cc1cn2cc(NC(=O)c3ccc(N4C[C@@H](C)N[C@@H](C)C4)c4ncc(O)nc34)cc(F)c2n1 [Compound 275] | – | > 10000 nM | > 10000 nM | > 10000 nM | > 10000 nM
14 | Cc1cn2cc(NC(=O)c3ccc(N4C[C@@H](C)N(O)[C@@H](C)C4)c4nccnc34)cc(F)c2n1 [Compound 355] | – | > 10000 nM | 1000 to 10000 nM | > 10000 nM | > 10000 nM
15 | Cc1cn2nc(NC(=O)c3ccc(C4CCNCC4)c4ccnnc34)cc(C)c2n1 [Compound 113] | – | 1000 to 10000 nM | 1000 to 10000 nM | 1000 to 10000 nM | 1000 to 10000 nM
